Reference: ChEMBL document CHEMBL1201862, “PubChem BioAssay data set” (2004)
Where “and” joins values, the source holds several entries; their conditions need not be identical. Equal values may be shown once.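 1) Cells in 96-well plates. 2) Compound, 48 h, 5 concentrations. 3) Linear interpolation between surrounding doses. 4) Unreached endpoint = highest concentration. GI50: concentration for 50% inhibition of growth.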 Calls of active or inactive are those of the source. Rule as the data show it: active = GI50 up to about 1.1 µM and inactive = higher.

Tests used:
Assay in all cases: NCI-60 cell line screen, 48 h
786-0 = test system: 786-0
A549 = test system: A549
BT-549 = test system: BT-549
CAKI-1 = test system: CAKI-1
COLO 205 = test system: COLO 205
EKVX = test system: EKVX
HCT-116 = test system: HCT-116
MDA-MB-435 = test system: MDA-MB-435
MDA-N = test system: MDA-N
OVCAR-3 = test system: OVCAR-3
OVCAR-5 = test system: OVCAR-5
RXF 393 = test system: RXF 393
SK-MEL-28 = test system: SK-MEL-28
SK-MEL-5 = test system: SK-MEL-5
T47D = test system: T47D
TK-10 = test system: TK-10
UACC-257 = test system: UACC-257
HCT-15 = test system: HCT-15
PC-3 = test system: PC-3

| SMILES | GI50 (786-0) | GI50 (A549) | GI50 (BT-549) | GI50 (CAKI-1) | GI50 (COLO 205) | GI50 (EKVX) | GI50 (HCT-116) | GI50 (MDA-MB-435) | GI50 (MDA-N) | GI50 (OVCAR-3) | GI50 (OVCAR-5) | GI50 (RXF 393) | GI50 (SK-MEL-28) | GI50 (SK-MEL-5) | GI50 (T47D) | GI50 (TK-10) | GI50 (UACC-257) | GI50 (HCT-15) | GI50 (PC-3) |
| --- | --- | --- | --- | --- | --- | --- | --- | --- | --- | --- | --- | --- | --- | --- | --- | --- | --- | --- | --- |
| Cc1cc(-c2cc(C)c(O)c(C(C)(C)C)c2)cc(C(C)(C)C)c1O | 10.7 µM (inactive) and 13.1 µM (inactive) | 9.27 µM (inactive) and 9.59 µM (inactive) | 14.1 µM (inactive) and 13.1 µM (inactive) | 14.6 µM (inactive) and 9.66 µM (inactive) | 11.1 µM (inactive) and 13.6 µM (inactive) | 14.8 µM (inactive) and 10.8 µM (inactive) | 6.21 µM (inactive) and 10.9 µM (inactive) | 11.5 µM (inactive) and 14.8 µM (inactive) | 14.7 µM (inactive) and 8.65 µM (inactive) | 12.2 µM (inactive) and 14.1 µM (inactive) | 14.5 µM (inactive) and 11.9 µM (inactive) | 13.4 µM (inactive) and 11 µM (inactive) | 16.7 µM (inactive) and 12 µM (inactive) | 10.6 µM (inactive) and 14.7 µM (inactive) | 4.53 µM (inactive) and 7 µM (inactive) | 11.2 µM (inactive) and 12.1 µM (inactive) | 11.8 µM (inactive) | – | – |
| C=C(C)CNCCN | > 100 µM (inactive) | > 100 µM (inactive) | > 100 µM (inactive) | > 100 µM (inactive) | – | > 100 µM (inactive) | > 100 µM (inactive) | > 100 µM (inactive) | > 100 µM (inactive) | > 100 µM (inactive) | > 100 µM (inactive) | > 100 µM (inactive) | > 100 µM (inactive) | > 100 µM (inactive) | > 100 µM (inactive) | > 100 µM (inactive) | > 100 µM (inactive) | > 100 µM | > 100 µM (inactive) |
| CC(=O)O[C@H]1CC[C@H]2[C@@H]3CCc4cc(O)c(I)cc4[C@H]3CC[C@]12C | 14.1 µM (inactive) | 15.3 µM (inactive) | 14.8 µM (inactive) | 16.1 µM (inactive) | 18.1 µM (inactive) | 13.1 µM (inactive) | – | – | 15.9 µM (inactive) | 16.6 µM (inactive) | 18.2 µM (inactive) | – | 15.3 µM (inactive) | 3.83 µM (inactive) | 14.7 µM (inactive) | 19.3 µM (inactive) | 16.4 µM (inactive) | 10.5 µM | 6.12 µM (inactive) |
| Cc1ccc(-n2nnc(C#N)c2O)cc1 | > 100 µM (inactive) | > 100 µM (inactive) | > 100 µM (inactive) | 93.3 µM (inactive) | > 100 µM (inactive) | > 100 µM (inactive) | > 100 µM (inactive) | > 100 µM (inactive) | > 100 µM (inactive) | > 100 µM (inactive) | > 100 µM (inactive) | > 100 µM (inactive) | > 100 µM (inactive) | > 100 µM (inactive) | > 100 µM (inactive) | > 100 µM (inactive) | > 100 µM (inactive) | > 100 µM | > 100 µM (inactive) |
| [N-]=[N+]=NC1=C(c2ccccn2)C(=O)c2cccc3cccc1c23 | 25.2 µM (inactive) | 27.7 µM (inactive) | 27.3 µM (inactive) | 26.7 µM (inactive) | 76.9 µM (inactive) | – | 8.63 µM (inactive) | 36.5 µM (inactive) | 53.8 µM (inactive) | 27.7 µM (inactive) | 79.6 µM (inactive) | 37.2 µM (inactive) | > 100 µM (inactive) | 6.84 µM (inactive) | > 100 µM (inactive) | 41.7 µM (inactive) | 32.8 µM (inactive) | 29 µM | 39.3 µM (inactive) |
| Cc1ccc(S(=O)(=O)NC(=O)NC(CCCCN)C(=O)O)cc1 (stereo not drawn) | > 100 µM (inactive) | > 100 µM (inactive) | > 100 µM (inactive) | – | > 100 µM (inactive) | – | > 100 µM (inactive) | – | > 100 µM (inactive) | – | – | > 100 µM (inactive) | > 100 µM (inactive) | > 100 µM (inactive) | > 100 µM (inactive) | > 100 µM (inactive) | > 100 µM (inactive) | > 100 µM | > 100 µM (inactive) |
| O=NN1C(c2ccccc2)CC(=NO)CC1c1ccccc1 (stereo not drawn) | > 100 µM (inactive) | > 100 µM (inactive) | > 100 µM (inactive) | 68.4 µM (inactive) | > 100 µM (inactive) | > 100 µM (inactive) | 71.1 µM (inactive) | > 100 µM (inactive) | > 100 µM (inactive) | > 100 µM (inactive) | – | > 100 µM (inactive) | > 100 µM (inactive) | > 100 µM (inactive) | > 100 µM (inactive) | > 100 µM (inactive) | > 100 µM (inactive) | > 100 µM | 70.3 µM (inactive) |
| Oc1ccc(Br)cc1/C=N/c1c(NC2CCCCC2)oc2ccc(Br)cc12 | 37.8 µM (inactive) | 54 µM (inactive) | 25.5 µM (inactive) | 36.8 µM (inactive) | > 10 µM (inactive) | 45.1 µM (inactive) | 13.7 µM (inactive) | 35.5 µM (inactive) | 32.6 µM (inactive) | 18.2 µM (inactive) | 63.1 µM (inactive) | 12.9 µM (inactive) | 41.5 µM (inactive) | 40.6 µM (inactive) | 8.34 µM (inactive) | 40.6 µM (inactive) | 37.8 µM (inactive) | 25.1 µM | – |
| CC(=O)/C(=C\n1c(=S)[nH]c2ccc([N+](=O)[O-])cc21)C(=O)Nc1ccccc1C | > 100 µM (inactive) | > 100 µM (inactive) | 33.3 µM (inactive) | > 100 µM (inactive) | > 100 µM (inactive) | > 100 µM (inactive) | > 100 µM (inactive) | > 100 µM (inactive) | > 100 µM (inactive) | > 100 µM (inactive) | > 100 µM (inactive) | > 100 µM (inactive) | > 100 µM (inactive) | 78.3 µM (inactive) | > 100 µM (inactive) | – | > 100 µM (inactive) | > 100 µM | > 100 µM (inactive) |
| C=C(CCOC)CCC1CCCCC(=C)C1=O (stereo not drawn) | > 100 µM (inactive) | > 100 µM (inactive) | > 100 µM (inactive) | > 100 µM (inactive) | > 100 µM (inactive) | > 100 µM (inactive) | > 100 µM (inactive) | > 100 µM (inactive) | > 100 µM (inactive) | > 100 µM (inactive) | > 100 µM (inactive) | > 100 µM (inactive) | > 100 µM (inactive) | > 100 µM (inactive) | > 100 µM (inactive) | – | – | > 100 µM | > 100 µM (inactive) |
| CC(=O)Nc1ccc(C(=O)NN2C(=O)CSC2c2ccccc2)cc1 (stereo not drawn) | > 100 µM (inactive) | > 100 µM (inactive) | 34.5 µM (inactive) | – | > 100 µM (inactive) | > 100 µM (inactive) | > 100 µM (inactive) | > 100 µM (inactive) | > 100 µM (inactive) | > 100 µM (inactive) | > 100 µM (inactive) | > 100 µM (inactive) | > 100 µM (inactive) | > 100 µM (inactive) | > 100 µM (inactive) | > 100 µM (inactive) | > 100 µM (inactive) | > 100 µM | – |
| CCOC(=O)C1=C(C)N(c2ccc(Cl)cc2)C2(O)C=CC(O)=C3C(=O)c4ccccc4C(=O)C312 (stereo not drawn) | 2.12 µM (inactive) | 4.56 µM (inactive) | 10.6 µM (inactive) | 1.96 µM (inactive) | 3.72 µM (inactive) | 4.36 µM (inactive) | 3.2 µM (inactive) | 2.59 µM (inactive) | 4.7 µM (inactive) | 1.91 µM (inactive) | 12.9 µM (inactive) | – | – | 7.96 µM (inactive) | 3.45 µM (inactive) | 1.71 µM (inactive) | 18.2 µM (inactive) | 2.12 µM | 3.34 µM (inactive) |
| O1C2C1C1OC1C1OC1C1OC21 (stereo not drawn) | > 100 µM (inactive) | > 100 µM (inactive) | > 100 µM (inactive) | > 100 µM (inactive) | > 100 µM (inactive) | > 100 µM (inactive) | > 100 µM (inactive) | > 100 µM (inactive) | > 100 µM (inactive) | – | > 100 µM (inactive) | – | > 100 µM (inactive) | > 100 µM (inactive) | > 100 µM (inactive) | > 100 µM (inactive) | > 100 µM (inactive) | > 100 µM | > 100 µM (inactive) |
| Fc1ccc(F)c(/C=N/C23CC4CC(CC(C4)C2)C3)c1 | > 10 µM (inactive) | > 10 µM (inactive) | > 10 µM (inactive) | > 10 µM (inactive) | > 10 µM (inactive) | > 10 µM (inactive) | > 10 µM (inactive) | – | > 10 µM (inactive) | > 10 µM (inactive) | > 10 µM (inactive) | > 10 µM (inactive) | > 10 µM (inactive) | > 10 µM (inactive) | > 10 µM (inactive) | > 10 µM (inactive) | > 10 µM (inactive) | > 10 µM | > 10 µM (inactive) |
| NC1c2c(Cl)sc(Cl)c2C(=O)C1O (stereo not drawn) | 94.6 µM (inactive) | > 100 µM (inactive) | 15.6 µM (inactive) | 24.4 µM (inactive) | 18.2 µM (inactive) | 21.6 µM (inactive) | 29.2 µM (inactive) | 42.2 µM (inactive) | 44.4 µM (inactive) | 30.8 µM (inactive) | > 100 µM (inactive) | 12.8 µM (inactive) | – | 26.9 µM (inactive) | > 100 µM (inactive) | > 100 µM (inactive) | 43.4 µM (inactive) | 16.5 µM | > 100 µM (inactive) |
| O=C(CCC(NC(=O)OCc1ccccc1)C(=O)OCc1ccccc1)Nc1ccc(OCc2ccccc2)cc1 (stereo not drawn) | 12.6 µM (inactive) | 19.3 µM (inactive) | > 10 µM (inactive) | > 31.6 µM (inactive) | 25.8 µM (inactive) | > 31.6 µM (inactive) | 11.4 µM (inactive) | 17 µM (inactive) | – | > 84.1 µM (inactive) | > 100 µM (inactive) | 28.3 µM (inactive) | > 31.6 µM (inactive) | > 10 µM (inactive) | 18.8 µM (inactive) | > 31.6 µM (inactive) | > 31.6 µM (inactive) | 13.1 µM | 13.2 µM (inactive) |
